In ChEMBL document CHEMBL1201862, “PubChem BioAssay data set” (2004):
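1) Cells in 96-well plates. 2) Compound, 48 h, 5 concentrations. 3) Linear interpolation between surrounding doses. 4) Unreached endpoint = highest concentration. At the GI50, growth is halved.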 Active and inactive are the calls of the source. No stated cut-off is given here; in the data, active = GI50 up to about 1.1 µM and inactive = higher.

Columns and labels:
Experiment in all cases: NCI-60 cell line screen, 48 h
[1] = test system: A498
[2] = test system: CCRF-CEM
[3] = test system: DU-145
[4] = test system: Hs-578T
[5] = test system: K562
[6] = test system: KM12
[7] = test system: M14
[8] = test system: MCF7
[9] = test system: MDA-N
[10] = test system: MOLT-4
[11] = test system: PC-3
[12] = test system: RXF 393
[13] = test system: SF-268
[14] = test system: SK-MEL-2
[15] = test system: SK-MEL-5
[16] = test system: SK-OV-3
[17] = test system: TK-10
[18] = test system: SW-620
[19] = test system: RPMI-8226

Measured: GI50

O=[N+]([O-])c1ccc2nc(O)c(/C=C(\O)c3ccccc3)nc2c1
inactive: [1] 12.5 µM | [2] > 100 µM | [3] > 100 µM | [4] 2.23 µM | [5] > 100 µM | [6] 4.81 µM | [7] > 100 µM | [8] 13.4 µM | [9] 93.5 µM | [10] > 100 µM | [11] 28.8 µM | [12] 20.6 µM | [13] 13.9 µM | [14] > 100 µM | [15] 98.2 µM | [16] 12.3 µM | [17] 4.13 µM

O=c1[nH]nc(Nc2ccccc2)c2nnn(Cc3ccccc3)c12
inactive: [1] > 100 µM | [2] > 100 µM | [3] > 100 µM | [4] 17.6 µM | [5] > 100 µM | [6] > 100 µM | [7] > 100 µM | [8] > 100 µM | [9] > 100 µM | [10] > 100 µM | [11] > 100 µM | [12] > 100 µM | [13] > 100 µM | [14] > 100 µM | [15] > 100 µM | [18] > 100 µM | [17] > 100 µM

CCN1C2=NCCN2S(=O)(=O)c2ccccc21
inactive: [1] > 100 µM | [2] > 100 µM | [3] > 100 µM | [4] > 100 µM | [5] > 100 µM | [6] > 100 µM | [7] > 100 µM | [8] > 100 µM | [9] > 100 µM | [10] > 100 µM | [11] > 100 µM | [12] > 100 µM | [13] > 100 µM | [14] > 100 µM | [15] > 100 µM | [16] > 100 µM | [18] > 100 µM | [17] > 100 µM

O[C@@H]1C[C@H](Cl)c2c(Cl)sc(Cl)c21
inactive: [2] > 100 µM | [3] > 100 µM | [4] > 100 µM | [5] > 100 µM | [6] > 100 µM | [7] > 100 µM | [8] 13 µM | [9] > 100 µM | [10] > 100 µM | [11] > 100 µM | [19] > 100 µM | [12] > 100 µM | [13] > 100 µM | [14] > 100 µM | [15] > 100 µM | [16] > 100 µM | [18] > 100 µM | [17] > 100 µM

N=C(N)NS(=O)(=O)c1ccc(/N=N/c2c(O)c(C(=O)O)cc3ccccc23)cc1
inactive: [2] > 100 µM | [3] > 100 µM | [4] > 100 µM | [5] > 100 µM | [6] > 100 µM | [7] > 100 µM | [8] > 100 µM | [9] > 100 µM | [10] > 100 µM | [11] > 100 µM | [19] > 100 µM | [12] > 100 µM | [13] > 100 µM | [14] > 100 µM | [15] > 100 µM | [16] > 100 µM | [18] > 100 µM | [17] > 100 µM

O/N=C1/CCCc2nonc21
inactive: [2] > 100 µM | [3] > 100 µM | [4] > 100 µM | [5] > 100 µM | [6] > 100 µM | [7] > 100 µM | [8] > 100 µM | [9] > 100 µM | [10] > 100 µM | [11] > 100 µM | [19] > 100 µM | [12] > 100 µM | [13] > 100 µM | [14] > 100 µM | [15] > 100 µM | [16] > 100 µM | [18] > 100 µM | [17] > 100 µM

CSc1nc(SC)c2c(C)cn(Cc3ccccc3)c2n1
inactive: [1] > 100 µM | [2] 51.4 µM | [3] > 100 µM | [4] > 100 µM | [6] > 100 µM | [7] > 100 µM | [8] 45.4 µM | [9] 30.3 µM | [10] 39 µM | [11] > 100 µM | [19] 85.9 µM | [13] > 100 µM | [14] > 100 µM | [15] > 100 µM | [16] > 100 µM | [18] > 100 µM | [17] > 100 µM

C=CCN(c1cc(OCc2ccccc2)c2c(c(C)cn2S(=O)(=O)c2ccc([N+](=O)[O-])cc2)c1[N+](=O)[O-])S(C)(=O)=O
inactive: [3] > 100 µM | [4] > 100 µM | [5] 5.08 µM | [6] 4.86 µM | [7] 29.1 µM | [8] > 100 µM | [9] 4.07 µM | [10] > 100 µM | [11] > 100 µM | [19] > 100 µM | [12] > 100 µM | [13] > 100 µM | [14] > 100 µM | [15] 43.7 µM | [16] > 100 µM | [17] > 100 µM

O=C1C[C@@H](c2ccccc2)O[C@@H](c2ccccc2)C1
inactive: [2] > 100 µM | [3] > 100 µM | [4] > 100 µM | [5] > 100 µM | [6] > 100 µM | [7] > 100 µM | [8] > 100 µM | [9] 58.6 µM | [10] > 100 µM | [11] > 100 µM | [19] > 100 µM | [12] > 100 µM | [13] > 100 µM | [14] > 100 µM | [15] > 100 µM | [16] > 100 µM | [18] > 100 µM

O=C(CN1CCN(c2ccccn2)CC1)N1CCCn2c1nc1ccccc1c2=O
inactive: [1] > 100 µM | [2] > 100 µM | [3] > 100 µM | [4] > 100 µM | [5] > 100 µM | [6] > 100 µM | [7] > 100 µM | [8] > 100 µM | [9] > 100 µM | [10] > 100 µM | [11] > 100 µM | [19] > 100 µM | [13] > 100 µM | [14] > 100 µM | [15] > 100 µM | [16] > 100 µM | [18] > 100 µM | [17] > 100 µM

COc1cccc(/C=C2\N=C(c3ccccc3)OC2=O)c1
inactive: [2] 25 µM | [3] 91.2 µM | [4] 22.5 µM | [5] 71.1 µM | [6] 73.5 µM | [7] 81.3 µM | [8] > 100 µM | [9] 47.2 µM | [11] > 100 µM | [19] 35.1 µM | [12] > 100 µM | [13] > 100 µM | [14] 56.1 µM | [15] 50.5 µM | [16] > 100 µM | [18] > 100 µM | [17] > 100 µM
